Experimental data reported in paper PMC3600154 (Nature, 2013).

Molecular target: mouse CALHM1 (Mus musculus, UniProt D3Z291)
Conditions: permeant released through the channel; pH 7.4

Chain of mouse CALHM1 (D3Z291 whole entry): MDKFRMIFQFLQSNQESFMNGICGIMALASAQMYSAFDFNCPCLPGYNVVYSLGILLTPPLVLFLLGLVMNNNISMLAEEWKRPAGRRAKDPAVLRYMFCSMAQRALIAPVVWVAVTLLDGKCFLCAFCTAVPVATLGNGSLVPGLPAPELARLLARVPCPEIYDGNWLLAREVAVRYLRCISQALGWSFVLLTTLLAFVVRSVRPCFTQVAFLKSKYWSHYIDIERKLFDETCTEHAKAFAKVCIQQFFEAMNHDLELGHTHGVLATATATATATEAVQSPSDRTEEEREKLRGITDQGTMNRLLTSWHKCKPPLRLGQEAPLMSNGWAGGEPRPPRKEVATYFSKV

Nc1ncnc2c1ncn2[C@@H]1O[C@H](COP(=O)(O)OP(=O)(O)OP(=O)(O)O)[C@@H](O)[C@H]1O [ATP, adenosine 5′-triphosphate]
luciferin-luciferase ATP release assay, transfected HeLa cells: Expression of mouse CALHM1 conferred ATP release with similar properties
